Among the data in patent publication US8697739B2, “Bicyclic acetyl-CoA carboxylase inhibitors and uses thereof” (Novartis AG, priority 2010, dated 2014) are IC50 values, retold here.

For this assay, the target named is T1, human acetyl-CoA carboxylase 2 (ACC2) (Homo sapiens, UniProt O00763).
T1 construct: The cDNA encoding amino acids 144 to 2458 of human acetyl-CoA carboxylase 2; made in house; host or cells: Sf9 insect cells (baculovirus, pFastBac1)
T1 sequence (O00763 144-2458): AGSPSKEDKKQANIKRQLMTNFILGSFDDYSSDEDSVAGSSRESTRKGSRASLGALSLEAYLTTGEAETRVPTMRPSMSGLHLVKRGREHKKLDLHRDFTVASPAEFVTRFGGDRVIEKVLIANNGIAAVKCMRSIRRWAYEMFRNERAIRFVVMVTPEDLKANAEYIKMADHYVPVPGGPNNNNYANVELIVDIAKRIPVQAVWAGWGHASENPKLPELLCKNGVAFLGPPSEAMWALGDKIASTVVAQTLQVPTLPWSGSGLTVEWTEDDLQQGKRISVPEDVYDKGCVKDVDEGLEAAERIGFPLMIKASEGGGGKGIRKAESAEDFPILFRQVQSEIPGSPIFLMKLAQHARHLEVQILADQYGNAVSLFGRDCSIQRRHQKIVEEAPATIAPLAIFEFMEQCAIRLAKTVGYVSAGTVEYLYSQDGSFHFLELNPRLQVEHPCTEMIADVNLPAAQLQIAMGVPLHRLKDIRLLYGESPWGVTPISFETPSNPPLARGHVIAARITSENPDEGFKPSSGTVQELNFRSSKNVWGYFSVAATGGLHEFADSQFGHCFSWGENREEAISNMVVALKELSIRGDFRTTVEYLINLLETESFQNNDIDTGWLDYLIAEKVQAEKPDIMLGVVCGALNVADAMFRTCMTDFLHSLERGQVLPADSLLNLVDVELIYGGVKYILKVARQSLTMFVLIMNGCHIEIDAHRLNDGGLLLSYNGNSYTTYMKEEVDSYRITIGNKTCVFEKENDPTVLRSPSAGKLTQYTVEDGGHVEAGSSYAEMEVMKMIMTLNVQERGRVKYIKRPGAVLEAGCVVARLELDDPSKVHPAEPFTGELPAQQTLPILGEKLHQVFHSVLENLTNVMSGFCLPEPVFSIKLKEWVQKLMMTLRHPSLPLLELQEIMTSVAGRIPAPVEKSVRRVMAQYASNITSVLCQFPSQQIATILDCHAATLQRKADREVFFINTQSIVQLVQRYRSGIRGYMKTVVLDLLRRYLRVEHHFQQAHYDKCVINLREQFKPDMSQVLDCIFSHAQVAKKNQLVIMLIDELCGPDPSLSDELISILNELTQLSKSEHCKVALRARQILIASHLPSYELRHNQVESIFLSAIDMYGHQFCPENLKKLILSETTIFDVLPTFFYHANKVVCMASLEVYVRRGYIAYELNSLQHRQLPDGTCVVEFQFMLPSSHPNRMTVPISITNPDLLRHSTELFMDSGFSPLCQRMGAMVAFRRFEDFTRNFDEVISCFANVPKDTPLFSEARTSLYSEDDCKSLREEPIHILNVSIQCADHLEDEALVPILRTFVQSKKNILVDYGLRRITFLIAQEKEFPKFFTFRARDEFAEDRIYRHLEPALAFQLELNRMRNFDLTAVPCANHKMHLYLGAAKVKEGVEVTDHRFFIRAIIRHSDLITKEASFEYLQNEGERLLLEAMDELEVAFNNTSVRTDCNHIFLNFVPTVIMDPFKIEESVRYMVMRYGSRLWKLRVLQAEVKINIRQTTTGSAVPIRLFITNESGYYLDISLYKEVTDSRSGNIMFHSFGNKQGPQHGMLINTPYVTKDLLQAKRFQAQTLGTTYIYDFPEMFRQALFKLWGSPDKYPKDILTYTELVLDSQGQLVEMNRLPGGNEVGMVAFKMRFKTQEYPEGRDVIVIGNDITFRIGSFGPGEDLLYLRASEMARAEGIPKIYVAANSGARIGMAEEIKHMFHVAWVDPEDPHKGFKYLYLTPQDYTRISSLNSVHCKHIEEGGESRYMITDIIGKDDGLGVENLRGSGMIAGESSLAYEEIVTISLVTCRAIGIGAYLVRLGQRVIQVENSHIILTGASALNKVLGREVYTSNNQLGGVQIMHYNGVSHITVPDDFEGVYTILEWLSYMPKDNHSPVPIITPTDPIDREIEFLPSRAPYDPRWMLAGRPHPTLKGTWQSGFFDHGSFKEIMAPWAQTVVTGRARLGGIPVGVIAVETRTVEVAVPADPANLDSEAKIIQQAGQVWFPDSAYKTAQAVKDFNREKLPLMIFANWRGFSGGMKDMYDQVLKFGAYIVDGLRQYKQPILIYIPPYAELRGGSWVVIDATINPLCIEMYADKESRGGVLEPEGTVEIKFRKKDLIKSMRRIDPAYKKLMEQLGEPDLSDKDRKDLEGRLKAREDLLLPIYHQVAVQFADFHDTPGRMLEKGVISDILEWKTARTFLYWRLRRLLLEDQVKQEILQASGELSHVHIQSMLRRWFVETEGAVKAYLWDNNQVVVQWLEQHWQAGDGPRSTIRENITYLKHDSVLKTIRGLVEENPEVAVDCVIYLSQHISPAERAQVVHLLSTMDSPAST
In words: Acetyl-CoA carboxylase enzyme assay (malonyl-CoA formation by LC/MS/MS). The assay is classed as biochemical. Particulars: recombinant human ACC2 (aa 144-2458); read-out: IC50 ACC2. The gist of the method:
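Malonyl-CoA formation was read by LC/MS/MS MRM against a [13C3]-malonyl-CoA internal standard, after acetic acid quench. The enzyme was baculovirus/Sf9-expressed human ACC2 residues 144–2458, given 15 minutes room-temperature compound preincubation in HEPES pH 7.5 buffer with MgCl2, citrate and DTT. Substrate solution held 50 μM acetyl-CoA, 120 μM ATP and 2 mM KHCO3.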
What is called IC50 is the point on the concentration scale where inhibition reaches its midpoint. As for `CC(C)CC1CCc2cc(S(=O)(=O)N[C@H]3CC[C@H](C(=O)N[C@H](C)c4ccc(F)cc4)CC3)ccc2N1` (stereo partly drawn) [Example 167, (1r,4R)-N-((R)-1-(4-fluorophenyl)ethyl)-4-(2-isobutyl-1,2,3,4-tetrahydroquinoline-6-sulfonamido)cyclohexanecarboxamide], the IC50 turned out to be 0.205 µM.
On to `CC1CCc2ccc(S(=O)(=O)N[C@H]3CC[C@H](C(=O)N[C@H](C)c4ccc(F)cc4)CC3)cc2N1` (stereo partly drawn) [Example 168, (1r,4R)-N-((R)-1-(4-fluorophenyl)ethyl)-4-(2-methyl-1,2,3,4-tetrahydroquinoline-7-sulfonamido)cyclohexanecarboxamide], for which the IC50 is 0.04 µM.
`CC1CCc2cc(S(=O)(=O)N[C@H]3CC[C@H](C(=O)N[C@H](C)c4ccc(F)cc4)CC3)ccc2N1` (stereo partly drawn) [Example 169, (1r,4R)-N-((R)-1-(4-fluorophenyl)ethyl)-4-(2-methyl-1,2,3,4-tetrahydroquinoline-6-sulfonamido)cyclohexanecarboxamide]: the IC50 stood at 0.11 µM.
Turning to `CC[C@H]1CCc2cc(S(=O)(=O)N[C@H]3CC[C@H](C(=O)N[C@H](C)c4ccc(F)cc4)CC3)ccc2N1` [Example 170, (1r,4R)-4-((S)-2-ethyl-1,2,3,4-tetrahydroquinoline-6-sulfonamido)-N-((R)-1-(4-fluorophenyl)ethyl)cyclohexanecarboxamide], the IC50 worked out at 0.09 µM.
As to `CC[C@@H]1CCc2cc(S(=O)(=O)N[C@H]3CC[C@H](C(=O)N[C@H](C)c4ccc(F)cc4)CC3)ccc2N1` [Example 171, (1r,4R)-4-((R)-2-ethyl-1,2,3,4-tetrahydroquinoline-6-sulfonamido)-N-((R)-1-(4-fluorophenyl)ethyl)cyclohexanecarboxamide], the IC50 turned out to be 0.289 µM.
The figure for `C[C@@H]1CNc2ncc(S(=O)(=O)N[C@H]3CC[C@H](C(=O)N[C@H](C)c4ccc(F)cc4)CC3)cc2N1` [Example 172, (1R,4R)-N-((R)-1-(4-fluorophenyl)ethyl)-4-((R)-2-methyl-1,2,3,4-tetrahydropyrido[3,2-b]pyrazine-7-sulfonamido)cyclohexanecarboxamide] is 0.212 µM.
As for `CC(C)(C)OC(=O)N1CCN(C(=O)C2CCC(NS(=O)(=O)c3ccc4c(c3)CCCN4)CC2)C(c2ccccc2)C1` (stereo not drawn) [Example 173, tert-butyl 3-phenyl-4-((1r,4r)-4-(1,2,3,4-tetrahydroquinoline-6-sulfonamido)cyclohexanecarbonyl)piperazine-1-carboxylate], the figure is 0.075 µM; as for `CC(C)(C)OC(=O)N1CCN(C(=O)[C@H]2CC[C@H](NS(=O)(=O)c3ccc4c(c3)NCCC4)CC2)C(c2ccccc2)C1` (stereo partly drawn) [Example 174, tert-butyl 3-phenyl-4-((1r,4r)-4-(1,2,3,4-tetrahydroquinoline-7-sulfonamido)cyclohexanecarbonyl)piperazine-1-carboxylate], 0.045 µM; as for `O=C([C@H]1CC[C@H](NS(=O)(=O)c2ccc3c(c2)CCCN3)CC1)N1CCNCC1c1ccccc1` (stereo partly drawn) [Example 175, N-((1r,4r)-4-(2-phenylpiperazine-1-carbonyl)cyclohexyl)-1,2,3,4-tetrahydroquinoline-6-sulfonamide], 0.12 µM.
For `O=C([C@H]1CC[C@H](NS(=O)(=O)c2ccc3c(c2)NCCC3)CC1)N1CCNCC1c1ccccc1` (stereo partly drawn) [Example 176, N-((1r,4r)-4-(2-phenylpiperazine-1-carbonyl)cyclohexyl)-1,2,3,4-tetrahydroquinoline-7-sulfonamide], the IC50 is 0.105 µM.
As for `O=C([C@H]1CC[C@H](NS(=O)(=O)c2ccc3c(c2)CCCN3)CC1)N1CCOCC1c1ccccc1` (stereo partly drawn) [Example 177, N-((1r,4r)-4-(3-phenylmorpholine-4-carbonyl)cyclohexyl)-1,2,3,4-tetrahydroquinoline-6-sulfonamide], the figure is 0.09 µM; as for `O=C([C@H]1CC[C@H](NS(=O)(=O)c2ccc3c(c2)NCCC3)CC1)N1CCOCC1c1ccccc1` (stereo partly drawn) [Example 178, N-((1r,4r)-4-(3-phenylmorpholine-4-carbonyl)cyclohexyl)-1,2,3,4-tetrahydroquinoline-7-sulfonamide], 0.055 µM; as for `CC(C)(C)OC(=O)N1CCN(C(=O)[C@H]2CC[C@H](NS(=O)(=O)c3ccc4c(c3)CCC(C(F)(F)F)N4)CC2)C(c2ccccc2)C1` (stereo partly drawn) [Example 179, tert-butyl 3-phenyl-4-((1r,4r)-4-(2-(trifluoromethyl)-1,2,3,4-tetrahydroquinoline-6-sulfonamido)cyclohexanecarbonyl)piperazine-1-carboxylate], 0.433 µM.
As for `CN1CCN(C)c2ncc(S(=O)(=O)N[C@H]3CC[C@H](C(=O)N4CCN(C(=O)OCc5ccccc5)CC4c4ccccc4)CC3)cc21` (stereo partly drawn) [Example 180, benzyl 4-((1r,4r)-4-(1,4-dimethyl-1,2,3,4-tetrahydropyrido[3,2-b]pyrazine-7-sulfonamido)cyclohexanecarbonyl)-3-phenylpiperazine-1-carboxylate], the figure is 0.138 µM.
As for `O=C(OCc1ccccc1)N1CCN(C(=O)[C@H]2CC[C@H](NS(=O)(=O)c3cnc4c(c3)NCCN4)CC2)C(c2ccccc2)C1` (stereo partly drawn) [Example 181, benzyl 3-phenyl-4-((1r,4r)-4-(1,2,3,4-tetrahydropyrido[3,2-b]pyrazine-7-sulfonamido)cyclohexanecarbonyl)piperazine-1-carboxylate], the figure is 0.115 µM.
With `O=C([C@H]1CC[C@H](NS(=O)(=O)c2ccc3c(c2)CCC(C(F)(F)F)N3)CC1)N1CCNCC1c1ccccc1` (stereo partly drawn) [Example 182, N-((1r,4r)-4-(2-phenylpiperazine-1-carbonyl)cyclohexyl)-2-(trifluoromethyl)-1,2,3,4-tetrahydroquinoline-6-sulfonamide], the IC50 worked out at 0.685 µM.
As for `CN1CCN(C)c2ncc(S(=O)(=O)N[C@H]3CC[C@H](C(=O)N4CCNCC4c4ccccc4)CC3)cc21` (stereo partly drawn) [Example 183, 1,4-dimethyl-N-((1r,4r)-4-(2-phenylpiperazine-1-carbonyl)cyclohexyl)-1,2,3,4-tetrahydropyrido[3,2-b]pyrazine-7-sulfonamide], the figure is 0.135 µM.
In the case of `C[C@@H](NC(=O)[C@H]1CC[C@H](NS(=O)(=O)c2ccc3c(c2)C(NC(=O)C(F)(F)F)CCN3C(=O)C(F)(F)F)CC1)c1ccc(F)cc1` (stereo partly drawn) [Example 184, (1r,4R)-N-((R)-1-(4-fluorophenyl)ethyl)-4-(4-(2,2,2-trifluoroacetamido)-1-(2,2,2-trifluoroacetyl)-1,2,3,4-tetrahydroquinoline-6-sulfonamido)cyclohexanecarboxamide], the half-maximal inhibitory concentration (IC50) is greater than 35 µM.
The figure for `C[C@@H](NC(=O)[C@H]1CC[C@H](NS(=O)(=O)c2ccc3c(c2)C(NC(=O)C(F)(F)F)CCN3)CC1)c1ccc(F)cc1` (stereo partly drawn) [Example 185, (1r,4R)-N-((R)-1-(4-fluorophenyl)ethyl)-4-(4-(2,2,2-trifluoroacetamido)-1,2,3,4-tetrahydroquinoline-6-sulfonamido)cyclohexanecarboxamide] is greater than 35 µM.
Turning to `O=C([C@H]1CC[C@H](NS(=O)(=O)c2cnc3c(c2)NCCN3)CC1)N1CCNCC1c1ccccc1` (stereo partly drawn) [Example 186, N-((1r,4r)-4-(2-phenylpiperazine-1-carbonyl)cyclohexyl)-1,2,3,4-tetrahydropyrido[3,2-b]pyrazine-7-sulfonamide], the IC50 turned out to be 0.245 µM.
The figure for `O=C([C@H]1CC[C@H](NS(=O)(=O)c2ccc3c(c2)NC(C(F)(F)F)CC3)CC1)N1CCNCC1c1ccccc1` (stereo partly drawn) [Example 187, N-((1r,4r)-4-(2-phenylpiperazine-1-carbonyl)cyclohexyl)-2-(trifluoromethyl)-1,2,3,4-tetrahydroquinoline-7-sulfonamide] is 0.245 µM; for `Cc1cc2c(cc1S(=O)(=O)N[C@H]1CC[C@H](C(=O)N[C@H](C)c3ccc(F)cc3)CC1)NCCC2` [Example 188, (1r,4R)-N-((R)-1-(4-fluorophenyl)ethyl)-4-(6-methyl-1,2,3,4-tetrahydroquinoline-7-sulfonamido)cyclohexanecarboxamide] it is 0.375 µM.
The figure for `C[C@@H](NC(=O)C1CCC(NS(=O)(=O)c2cnc3c(c2)N[C@@H](Cc2ccccc2)CS3)CC1)c1ccc(F)cc1` (stereo partly drawn) [Example 189, 4-((S)-2-benzyl-2,3-dihydro-1H-pyrido[2,3-b][1,4]thiazine-7-sulfonamido)-N-((R)-1-(4-fluorophenyl)ethyl)cyclohexanecarboxamide] is 0.075 µM.
The figure for `C[C@@H](NC(=O)C1CCC(NS(=O)(=O)c2cnc3c(c2)N[C@H](Cc2ccccc2)CS3)CC1)c1ccc(F)cc1` (stereo partly drawn) [Example 190, 4-((R)-2-benzyl-2,3-dihydro-1H-pyrido[2,3-b][1,4]thiazine-7-sulfonamido)-N-((R)-1-(4-fluorophenyl)ethyl)cyclohexanecarboxamide] is 0.035 µM; for `O=C([C@H]1CC[C@H](NS(=O)(=O)c2cnc3c(c2)NCCN3)CC1)N1CCNC[C@@H]1c1ccccc1` [Example 191, N-((1S,4r)-4-((S)-2-phenylpiperazine-1-carbonyl)cyclohexyl)-1,2,3,4-tetrahydropyrido[3,2-b]pyrazine-7-sulfonamide] it is 0.15 µM; for `O=C([C@H]1CC[C@H](NS(=O)(=O)c2cnc3c(c2)NCCS3)CC1)N1CCNC[C@@H]1c1ccccc1` [Example 192, N-((1S,4r)-4-((S)-2-phenylpiperazine-1-carbonyl)cyclohexyl)-2,3-dihydro-1H-pyrido[2,3-b][1,4]thiazine-7-sulfonamide] it is 0.015 µM.
As to `O=C([C@H]1CC[C@H](NS(=O)(=O)c2cnc3c(c2)NCCS3)CC1)N1CCOCC1c1ccccc1` (stereo partly drawn) [Example 193, N-((1r,4r)-4-(3-phenylmorpholine-4-carbonyl)cyclohexyl)-2,3-dihydro-1H-pyrido[2,3-b][1,4]thiazine-7-sulfonamide], the IC50 was 0.015 µM.
